Columns and labels:
Type in all cases: cell-based, mouse
phospho-AMPK α (Thr72) = test: AMPK activation in Hepa 1-6 cells, phospho-AMPK α Western blot; conditions: for Phospho-AMPK α: 60 minutes, Hepa 1-6, band intensity relative to control = 100; for AMPK-activating effect (summary in words): Hepa 1-6, results of Tables 4 to 6
Protocol: (§1) Test 3 (AMPK Activating Effect of Catechins)
(§2) Using a mouse hepatocyte line (Hepa 1-6), activation of AMPK was assessed based on degrees of phosphorylation of AMPK and ACC (acetyl-CoA carboxylase) as indices.
The mouse hepatocyte line (Hepa 1-6) was seeded in a 25-cm^2 flask, and cultured in DMEM (+10% FBS, +antimicrobial agent) at 37° C. for 1 to 2 days. When the culture has become subconfluent, the medium was removed. After washed with PBS(−),DMEM(−FBS)was added as a replacement medium, followed by further culture for 1 day. Subsequent to removal of the medium, DMEM (−FBS) with catechins and a tea extract added at predetermined concentrations therein was added, followed by culture for 60 minutes. Subsequent to removal of the medium and washing with PBS (−), a lytic solution [10 mM Tris (pH 7.4), 50 mM NaCl, 30 mM sodium pyrophosphate, 0.5% Triton X-100, protease inhibitor cocktail (“SIGMA P2714”), phosphatase inhibitor cocktail-1 (“SIGMA P2850”), phosphatase inhibitor cocktail 1-2 (“SIGMA P5726”); 200 μL] was added, and a lysate was collected by a cell scraper. The thus-collected lysate was caused to pass three times through a syringe with 23 G needle so that the lysate was homogenized. The homogenized lysate was then allowed stand on ice for 30 minutes. The lysate was centrifuged at 15,000 rpm and at 4° C. for 15 minutes, and proteins in supernatant were provided for use in the following experiment.
After the concentration of the proteins in supernatant was measured, it was adjusted such that the protein concentration became identical among the samples. A ¼ volume of SDS buffer (250 mM Tris, 12.5% SDS, 20% glycerol) was added, followed by further addition of 2-mercaptoethanol and bromophenol blue. The resulting mixture was subjected to thermal denaturation at 95° C., and was then quenched at 4° C. to provide a sample for electrophoresis.
A predetermined amount (about 20 to 40 μg) of the sample for electrophoresis was subjected to SDS-PAGE (4 or 12% gel). After transferred onto a membrane, phospho-AMPK α (Thr72), phospho-AMPK β (Ser108) and phospho-ACC (Ser79) were detected using an anti-phospho-AMPK α antibody (product of Cell Signaling Technology, Inc.), an anti-phospho-AMPK β antibody (product of Cell Signaling Technology, Inc.) or an anti-phospho-ACC antibody (product of Cell Signaling Technology, Inc.) as a primary antibody, an anti-rabbit-HRP antibody (product of Amersham Biosciences, Inc.) as a secondary antibody, and a phototope-HRP Western detection system (product of Cell Signaling Technology, Inc.) as a detection reagent. The intensities of detected bands were converted into numerical values (pixels) by an image analysis (“EDAS 290 Image Analysis System”, Kodak Company). Supposing that the corresponding band intensities of the control (catechins non-added group) were 100, the numerical values (pixels) were indicated as relative values to the values of the control. It is to be noted that as catechin samples, products of SIGMA Corporation or Wako Pure Chemical Industries, Ltd. were used. As the tea extract (tea catechins), “TEAFURAN” (product of ITO EN, LTD.) as used.

phospho-AMPK β (Ser108) = test: AMPK activation in Hepa 1-6 cells, phospho-AMPK β Western blot; conditions: 60 minutes, band intensity relative to control = 100
Protocol: as §1, §2
The mouse hepatocyte line (Hepa 1-6) was seeded in a 25-cm^2 flask, and cultured in DMEM (+10% FBS, +antimicrobial agent) at 37° C. for 1 to 2 days. When the culture has become subconfluent, the medium was removed. After washed with PBS(−),DMEM(−FBS)was added as a replacement medium, followed by further culture for 1 day. […]
After the concentration of the proteins in supernatant was measured, it was adjusted such that the protein concentration became identical among the samples. […]
A predetermined amount (about 20 to 40 μg) of the sample for electrophoresis was subjected to SDS-PAGE (4 or 12% gel). After transferred onto a membrane, phospho-AMPK α (Thr72), phospho-AMPK β (Ser108) and phospho-ACC (Ser79) were detected using an anti-phospho-AMPK α antibody (product of Cell Signaling Technology, Inc.), an anti-phospho-AMPK β antibody (product of Cell Signaling Technology, Inc.) or an anti-phospho-ACC antibody (product of Cell Signaling Technology, Inc.) as a primary antibody, an anti-rabbit-HRP antibody (product of Amersham Biosciences, Inc.) as a secondary antibody, and a phototope-HRP Western detection system (product of Cell Signaling Technology, Inc.) as a detection reagent. […]

phospho-ACC (Ser79) = test: AMPK activation in Hepa 1-6 cells, phospho-ACC Western blot; conditions: 60 minutes, band intensity relative to control = 100
Protocol: The mouse hepatocyte line (Hepa 1-6) was seeded in a 25-cm^2 flask, and cultured in DMEM (+10% FBS, +antimicrobial agent) at 37° C. for 1 to 2 days. When the culture has become subconfluent, the medium was removed. After washed with PBS(−),DMEM(−FBS)was added as a replacement medium, followed by further culture for 1 day. Subsequent to removal of the medium, DMEM (−FBS) with catechins and a tea extract added at predetermined concentrations therein was added, followed by culture for 60 minutes. […]
A predetermined amount (about 20 to 40 μg) of the sample for electrophoresis was subjected to SDS-PAGE (4 or 12% gel). […] The intensities of detected bands were converted into numerical values (pixels) by an image analysis (“EDAS 290 Image Analysis System”, Kodak Company). […]

Row | Compound | Phospho-AMPK α (phospho-AMPK α (Thr72); Table 4, 150 μM) | AMPK-activating effect (summary in words) (phospho-AMPK α (Thr72)) | other results
1 | O=C(O[C@@H]1Cc2c(O)cc(O)cc2O[C@@H]1c1ccc(O)c(O)c1)c1cc(O)c(O)c(O)c1 [Epicatechingallate] | 256 | – | –
2 | O=C(O[C@@H]1Cc2c(O)cc(O)cc2O[C@@H]1c1cc(O)c(O)c(O)c1)c1cc(O)c(O)c(O)c1 [Epigallocatechingallate] | 1085 | excellent AMPK-activating effect | Phospho-AMPK α (phospho-AMPK α (Thr72); Table 5, 100 μM): 198; Phospho-AMPK α (phospho-AMPK α (Thr72); Table 5, 150 μM): 261; Phospho-AMPK β (phospho-AMPK β (Ser108); Table 5, 100 μM): 120; Phospho-AMPK β (phospho-AMPK β (Ser108); Table 5, 150 μM): 149; Phospho-ACC (phospho-ACC (Ser79); Table 5, 100 μM): 220; Phospho-ACC (phospho-ACC (Ser79); Table 5, 150 μM): 304
3 | Catechingallate | 369 | – | –
4 | Oc1cc(O)c2c(c1)O[C@H](c1ccc(O)c(O)c1)[C@H](O)C2 [Epicatechin] | 246 | – | –
5 | Catechin | 78 | – | –
6 | O=C(O[C@@H]1Cc2c(O)cc(O)cc2O[C@H]1c1cc(O)c(O)c(O)c1)c1cc(O)c(O)c(O)c1 [Gallocatechingallate] | 1124 | excellent AMPK-activating effect | –
7 | Oc1cc(O)c2c(c1)O[C@H](c1cc(O)c(O)c(O)c1)[C@H](O)C2 [Epigallocatechin] | 435 | excellent AMPK-activating effect | –
8 | Oc1cc(O)c2c(c1)O[C@H](c1cc(O)c(O)c(O)c1)[C@@H](O)C2 [Gallocatechin] | 451 | excellent AMPK-activating effect | –

From patent US20070004650A1, “Endurance improving agent” (KAO CORPORATION, priority 2003, published 2007)
